Experimental data taken from PMC6862323, “Substitution of Arginine 120 in Human D-Amino Acid Oxidase Favors FAD-Binding and Nuclear Mistargeting” (Frontiers in Molecular Biosciences, 2019).
Where two headings read alike, the source gives them in different places.

Key:
[1] = molecular target: T1, R120L hDAAO variant (Homo sapiens, UniProt P14920, R120L); experiment: Apparent kinetic parameters on D-amino acids (oxygen electrode), R120L hDAAO; format: biochemical; details: air saturation, 25°C, pH 8.5, 0.2 mM FAD
T1 construct: His-tag (N); made in house; host or cells: E. coli BL21 (DE3) Star
Procedure: (§1) The kinetic parameters were determined on different D-amino acids, employing increasing substrate concentrations (Molla et al., [2000], [2006]). The apparent kinetic parameters were calculated using the initial reaction rate according to a Michaelis–Menten equation using the Kaleidagraph software (Synergy Software, Reading, PA, USA).
(§2) The apparent kinetic parameters were calculated according to a Michaelis–Menten equation using the initial velocity values determined at increasing D-amino acid concentrations and a fixed O2 concentration (air saturation) at pH 8.5 and 25°C, in the presence of 0.2 mM FAD to avoid apoprotein formation for wild-type hDAAO.

[2] = system: wild-type hDAAO; set-up: method as in Molla et al. (2006) and Murtas et al. (2017); details: air saturation, 25°C, pH 8.5, ref Molla et al. (2006) and Murtas et al. (2017), cited from earlier work
[3] = molecular target: T2, R120E hDAAO variant (Homo sapiens, UniProt P14920, R120E); experiment: Apparent kinetic parameters on D-amino acids (oxygen electrode), R120E hDAAO; format: biochemical; details: air saturation, 25°C, pH 8.5, 0.2 mM FAD
T2 construct: His-tag (N); made in house; host or cells: E. coli BL21 (DE3) Star
Procedure: as §1, §2

[4] = molecular target: T1, R120L hDAAO variant; experiment: FAD and ligand binding by quenching of protein fluorescence, R120L hDAAO
Procedure: (§3) Protein fluorescence spectra were recorded between 300 and 400 nm, with excitation at 280 nm using a Jasco FP-750 instrument (excitation slit of 10 nm; emission slit of 5 nm) in 10 mM potassium phosphate, pH 8.0, 1% (v/v) glycerol, 5 mM 2-mercaptoethanol, […]

[5] = molecular target: wild-type hDAAO; details: ref Murtas et al. (2017), cited from earlier work
[6] = system: W209R hDAAO; set-up: method as in Cappelletti et al., 2015; details: compared with wild-type hDAAO; ref Cappelletti et al., 2015; cited from earlier work
[7] = molecular target: T2, R120E hDAAO variant; experiment: FAD and ligand binding by quenching of protein fluorescence, R120E hDAAO
Procedure: as §3

[8] = Standard DAAO activity assay of purified hDAAO variants (oxygen electrode, 28 mM D-alanine); format: biochemical; details: pH 8.5, 25°C
[9] = system: U87 glioblastoma cells; experiment: Confocal analysis of cellular distribution of EYFP-hDAAO variants in transiently transfected U87 cells; format: cell-based, human
Procedure: Human U87 glioblastoma cells (ATCC) were cultured in DMEM supplemented with 10% fetal bovine serum, 1 mM sodium pyruvate, 2 mM L-glutamine, 1% non-essential amino acids, 1% penicillin/streptomycin, and 1% amphotericin B (Euroclone), at 37°C in 5% CO2. The cells were transfected either with the pEYFP-hDAAO-C3 construct (for the expression of the wild-type enzyme downstream of the enhanced yellow fluorescent protein, EYFP) (Sacchi et al., [2008], [2011]), the pEYFP-hDAAO(R120L)-C3, or the pEYFP-hDAAO(R120E)-C3 expression vectors. The latter constructs were obtained by mutagenesis using the QuikChange Lightning Site-Directed Mutagenesis Kit (Agilent), and the following primers: 5′-[…]-3′ and 5′-[…]-3′ for the R120E substitution, and 5-[…]-3′ and 5′-[…]-3′ for the R120L substitution.
For transient transfection, 2 ×10^4 cells were seeded into eight-well chamber slides (Sarstedt). At 24 h after seeding, cells were transfected with 2 μg plasmid DNA using a 4:1 ratio of FuGENE transfection reagent (Promega) to DNA. Then, 12.5 μL of transfection mix was added to 500 μL medium per well. Protein expression levels were monitored by using a fluorescence microscope (Olympus IX51) equipped with a FITC filter and by Western blot analysis using an anti-hDAAO antibody (Davids Biotechnologie) (Sacchi et al., [2008], [2011]).
At 24, 48, and 72 h after transfection, cells were washed twice with PBS and fixed with ice-cold 4% p-formaldehyde and 4% sucrose for 10 min at room temperature. After fixation, cells were washed twice with PBS and blocked by incubation in PBS supplemented with 0.2% Triton X-100 and 4% horse serum for 30 min at room temperature. Peroxisomes were stained using rabbit polyclonal anti-PMP70 (peroxisomal membrane protein 70, Sigma), diluted 1:500 in PBS, 0.1% Triton X-100, and 4% horse serum overnight at 4°C; they were then washed twice in PBS and 1% horse serum and incubated for 1 h at room temperature (light protected) with goat anti-rabbit Dylight 550 secondary antibodies (Abcam) diluted 1:400 in PBS, 0.1% Triton X-100, and 1.5% horse serum. Cells were then extensively washed in PBS and nuclei were stained with DRAQ5™ (Thermo Scientific) and diluted 1:500 in PBS for 10 min at room temperature in the dark. Cells were washed three times with PBS and stored in PBS at 4°C until imaging.
Immunostained cells were imaged using an inverted laser scanning confocal microscope (TCS SP5, Leica Microsystems), equipped with a 63.0 ×1.25 NA plan apochromatic oil immersion objective. Confocal image stacks were acquired using the Leica TCS software with a sequential mode to avoid interference between each channel and without saturating any pixel. Cells in 10–15 non-magnified optical fields were analyzed for each condition (i.e., different EYFP-hDAAO expression constructs at different times after transfection). The fluorescence signal corresponding to the overexpressed EYFP-hDAAO variants was monitored by excitation at 514 nm (yellow channel); the peroxisomal and nuclear cellular compartments were imaged by excitation at 546 nm (red channel) and 647 nm (blue channel), respectively.
U87 glioblastoma cells were transiently transfected with a pEYFP-hDAAO-C3 plasmid encoding for EYFP-hDAAO chimeric proteins harboring R, E, or L at position 120 of the flavoenzyme. […] A similar amount of transfected cells (expressing EYFP-hDAAO protein) was obtained for all three constructs (Table 4). The percentage of cells showing a cytosolic, peroxisomal, and nuclear localization of the flavoenzyme was determined by comparing the yellow fluorescence signal of EYFP-hDAAO variants with those of the markers PMP-70 (for peroxisomes) and DRAQ5™ dye (for nuclei, Figure 5). The amount of cytosolic wild-type EYFP-hDAAO decreased with time after transfection (28% of the signal is cytosolic at 72 h vs. 94% at 24 h), as did the amount of nuclear signal (Table 4 and Figure 6). […]

[10] = apoprotein, no benzoate, read-out: FAD Kd, free form, first saturation phase
[11] = apoprotein, no benzoate, read-out: FAD Kd, free form, second saturation phase
[12] = in presence of 70 μM benzoate, read-out: FAD Kd, benzoate complex, first saturation phase
[13] = in presence of 70 μM benzoate, read-out: FAD Kd, benzoate complex, second saturation phase

T2 sequence (P14920 whole entry R120E): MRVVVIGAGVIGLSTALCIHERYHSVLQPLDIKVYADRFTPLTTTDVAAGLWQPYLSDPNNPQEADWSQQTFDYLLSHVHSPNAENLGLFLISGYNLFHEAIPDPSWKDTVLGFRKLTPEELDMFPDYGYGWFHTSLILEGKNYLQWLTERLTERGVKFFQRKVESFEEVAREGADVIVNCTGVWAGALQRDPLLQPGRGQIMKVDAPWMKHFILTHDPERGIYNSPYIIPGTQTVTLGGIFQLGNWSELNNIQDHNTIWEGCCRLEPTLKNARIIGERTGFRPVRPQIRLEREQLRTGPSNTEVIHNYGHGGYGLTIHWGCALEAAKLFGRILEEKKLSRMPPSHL
T1 sequence (P14920 whole entry R120L): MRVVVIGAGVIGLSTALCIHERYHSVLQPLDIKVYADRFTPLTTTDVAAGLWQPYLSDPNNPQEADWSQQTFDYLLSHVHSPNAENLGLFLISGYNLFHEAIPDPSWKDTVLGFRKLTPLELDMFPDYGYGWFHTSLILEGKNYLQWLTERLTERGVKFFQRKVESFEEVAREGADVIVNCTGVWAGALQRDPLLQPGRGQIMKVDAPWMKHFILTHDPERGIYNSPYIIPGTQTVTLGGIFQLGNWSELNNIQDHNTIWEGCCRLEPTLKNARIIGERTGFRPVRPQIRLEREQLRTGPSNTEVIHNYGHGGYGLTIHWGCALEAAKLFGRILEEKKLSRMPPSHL

Compound: N[C@H](CO)C(=O)O [D-Ser, D-serine]
- Km [1]: 26.7 ± 4.5 mM
- apparent kcat [1]: 11.3 ± 0.4 s⁻¹
- apparent kcat [2]: 3.0 ± 0.1 s⁻¹
- Km ([2]; read-out: apparent Km): 7.5 ± 0.5 mM
- Km [3]: 17.6 ± 3.5 mM
- apparent kcat [3]: 8.5 ± 0.4 s⁻¹

Compound: Cc1cc2nc3c(=O)[nH]c(=O)nc-3n(C[C@H](O)[C@H](O)[C@H](O)COP(=O)(O)OP(=O)(O)OC[C@H]3O[C@@H](n4cnc5c(N)ncnc54)[C@H](O)[C@@H]3O)c2cc1C [FAD]
- amplitude of fluorescence change, FAD binding, free form, first phase ([4]; apoprotein, no benzoate): 60%
- amplitude of fluorescence change, FAD binding, free form, second phase ([4]; apoprotein, no benzoate): 40%
- Kd [4, 10]: 0.05 ± 0.01 µM
- Kd [4, 11]: 23.1 ± 1 µM
- amplitude of fluorescence change, FAD binding, benzoate complex, first phase ([4]; in presence of 70 μM benzoate): 75%
- amplitude of fluorescence change, FAD binding, benzoate complex, second phase ([4]; in presence of 70 μM benzoate): 25%
- Kd [4, 12]: 0.07 ± 0.01 µM
- Kd [4, 13]: ≥ 20 µM
- Kd [5, 10]: 0.43 ± 0.02 µM
- Kd [5, 11]: ≥ 30 µM
- Kd ([5]; in presence of 70 μM benzoate, monophasic, read-out: FAD Kd, benzoate complex): 0.48 ± 0.02 µM
- tighter FAD-binding (fold) [6]: 4 fold
- amplitude of fluorescence change, FAD binding, free form, first phase ([7]; apoprotein, no benzoate): 65%
- amplitude of fluorescence change, FAD binding, free form, second phase ([7]; apoprotein, no benzoate): 35%
- Kd [7, 10]: 0.05 ± 0.01 µM
- Kd [7, 11]: 32 ± 3 µM
- amplitude of fluorescence change, FAD binding, benzoate complex, first phase ([7]; in presence of 70 μM benzoate): 65%
- amplitude of fluorescence change, FAD binding, benzoate complex, second phase ([7]; in presence of 70 μM benzoate): 35%
- Kd [7, 12]: 0.61 ± 0.08 µM
- Kd [7, 13]: ≥ 30 µM

Compound: R120E: hDAAO variant with Arg120 substituted by glutamate (His-tagged from E. coli; EYFP-tagged in U87 cells)
- Specific activity [8]: 21.0 U/mg protein
- hDAAO cellular distribution: A, large cytosolic aggregates detected ([9]; 24 h after transfection): 29.7 % of transfected cells
- hDAAO cellular distribution: C, cytosol ([9]; 24 h after transfection): 86.7 % of transfected cells
- hDAAO cellular distribution: C/P, mixed, cytosol and peroxisomes ([9]; 24 h after transfection): 7.8 % of transfected cells
- hDAAO cellular distribution: N, nucleus ([9]; 24 h after transfection): 36.7 % of transfected cells
- hDAAO cellular distribution: P, peroxisomes ([9]; 24 h after transfection): 6.3 % of transfected cells
- hDAAO cellular distribution: A, large cytosolic aggregates detected ([9]; 48 h after transfection): 31.3 % of transfected cells
- hDAAO cellular distribution: C, cytosol ([9]; 48 h after transfection): 56.7 % of transfected cells
- hDAAO cellular distribution: C/P, mixed, cytosol and peroxisomes ([9]; 48 h after transfection): 14.9 % of transfected cells
- hDAAO cellular distribution: N, nucleus ([9]; 48 h after transfection): 27.6 % of transfected cells
- hDAAO cellular distribution: P, peroxisomes ([9]; 48 h after transfection): 28.4 % of transfected cells
- hDAAO cellular distribution: A, large cytosolic aggregates detected ([9]; 72 h after transfection): 18.2 % of transfected cells
- hDAAO cellular distribution: C, cytosol ([9]; 72 h after transfection): 40.3 % of transfected cells
- hDAAO cellular distribution: C/P, mixed, cytosol and peroxisomes ([9]; 72 h after transfection): 18.2 % of transfected cells
- hDAAO cellular distribution: N, nucleus ([9]; 72 h after transfection): 24.0 % of transfected cells
- hDAAO cellular distribution: P, peroxisomes ([9]; 72 h after transfection): 41.6 % of transfected cells

Compound: R120L: hDAAO variant with Arg120 substituted by leucine (His-tagged from E. coli; EYFP-tagged in U87 cells)
- Specific activity [8]: 17.6 U/mg protein
- hDAAO cellular distribution: A, large cytosolic aggregates detected ([9]; 24 h after transfection): 41.5 % of transfected cells
- hDAAO cellular distribution: C, cytosol ([9]; 24 h after transfection): 93.1 % of transfected cells
- hDAAO cellular distribution: C/P, mixed, cytosol and peroxisomes ([9]; 24 h after transfection): 3.8 % of transfected cells
- hDAAO cellular distribution: N, nucleus ([9]; 24 h after transfection): 20.8 % of transfected cells
- hDAAO cellular distribution: P, peroxisomes ([9]; 24 h after transfection): 3.1 % of transfected cells
- hDAAO cellular distribution: A, large cytosolic aggregates detected ([9]; 48 h after transfection): 22.6 % of transfected cells
- hDAAO cellular distribution: C, cytosol ([9]; 48 h after transfection): 59.7 % of transfected cells
- hDAAO cellular distribution: C/P, mixed, cytosol and peroxisomes ([9]; 48 h after transfection): 21.0 % of transfected cells
- hDAAO cellular distribution: N, nucleus ([9]; 48 h after transfection): 20.2 % of transfected cells
- hDAAO cellular distribution: P, peroxisomes ([9]; 48 h after transfection): 19.4 % of transfected cells
- hDAAO cellular distribution: A, large cytosolic aggregates detected ([9]; 72 h after transfection): 35.6 % of transfected cells
- hDAAO cellular distribution: C, cytosol ([9]; 72 h after transfection): 45.5 % of transfected cells
- hDAAO cellular distribution: C/P, mixed, cytosol and peroxisomes ([9]; 72 h after transfection): 21.2 % of transfected cells
- hDAAO cellular distribution: N, nucleus ([9]; 72 h after transfection): 13.1 % of transfected cells
- hDAAO cellular distribution: P, peroxisomes ([9]; 72 h after transfection): 34.3 % of transfected cells
